Consider one sequence from US9243254B2, “Method for transforming a bacterium belonging to the streptococcus genus by natural competence” (priority 2009, dated 2016).

Format in all cases: cell-based, Streptococcus thermophilus
Experiment [1] has as its system S. thermophilus DGCC3367. Description: Natural transformation in CDM upon addition of synthetic peptide. The note with it: 1 μM LPYFAGCL, 1 μg/mL pUC18_stu0855::P32cat. As to the method:
(§1) Similarly to the protocol used in example 4, various S. thermophilus strains, including LMD-9, CNRZ1066 and LMG18311 used as controls, were pre-cultivated in M17-lactose medium. The cells of the precultures were harvested (5000 g, 9 minutes, 20° C.) and washed twice in CDM and then resuspended in CDM. The washed cells were diluted in fresh CDM medium to obtain an optical density of 0.05, and then incubated at 37° C. After 1.5 h of incubation, in one set of experiment, 1 μM of one of the tested synthetic peptides (LPYFAGCL) (SEQ ID NO: 85) and 1 μg/mL of pGIUD0855cat DNA were added to the culture, whereas 1 μg/mL of DNA but no synthetic peptide was added to the second set of experiment. Plasmid pGIUD0855cat is a pUC18-derivative containing a chloramphenicol resistance cassette flanked by 1-kb fragments corresponding to the upstream and downstream regions of stu0855. Upon transformation, it promotes the genetic replacement of stu0855 by P32-cat through homologous recombination (FIG. 7). The cultures were grown during 6 hours and serial dilutions were plated on the surface of M17-lactose agar medium containing 5 μg/mL of chloramphenicol to measure transformation efficiency. Transformed S. thermophilus cells were selected at 37° C.; when transformants were obtained, the transformation efficiency was calculated and is given in Table 9.

In experiment [2] the test system is S. thermophilus DGCC715. Described as above. The conditions noted are these: 1 μM LPYFAGCL, 1 μg/mL pUC18_stu0855::P32cat. As to the method: as §1
Experiment [3] has as its system S. thermophilus DGCC7666. Described as above. The conditions noted are these: 1 μM LPYFAGCL, 1 μg/mL pUC18_stu0855::P32cat. As to the method:
as §1

For experiment [4], the system named is S. thermophilus DGCC7694. The experiment is described as above. The conditions noted are these: 1 μM LPYFAGCL, 1 μg/mL pUC18_stu0855::P32cat. As to the method:
as §1

Experiment [5] relates to S. thermophilus DGCC7710. The experiment is described as above. The note with it: 1 μM LPYFAGCL, 1 μg/mL pUC18_stu0855::P32cat. As to the method:
as §1

The test system of experiment [6] is S. thermophilus DGCC7773. Described as above. The conditions noted are these: 1 μM LPYFAGCL, 1 μg/mL pUC18_stu0855::P32cat. As to the method: as §1
The test system of experiment [7] is S. thermophilus DGCC7785. The description is as above. The note with it: 1 μM LPYFAGCL, 1 μg/mL pUC18_stu0855::P32cat. As to the method:
as §1

For experiment [8], the system named is S. thermophilus DGCC7790. The experiment is described as above. The note with it: 1 μM LPYFAGCL, 1 μg/mL pUC18_stu0855::P32cat. As to the method:
as §1

Experiment [9] concerns S. thermophilus DGCC7796. The description is as above. The note with it: 1 μM LPYFAGCL, 1 μg/mL pUC18_stu0855::P32cat. As to the method: as §1
Experiment [10] deals with S. thermophilus DGCC7809. The experiment is described as above. The note with it: 1 μM LPYFAGCL, 1 μg/mL pUC18_stu0855::P32cat. As to the method: as §1
The test system of experiment [11] is S. thermophilus DGCC782. The experiment is described as above. The conditions noted are these: 1 μM LPYFAGCL, 1 μg/mL pUC18_stu0855::P32cat. As to the method:
as §1

In experiment [12] the test system is S. thermophilus DGCC7853. The description is as above. The note with it: 1 μM LPYFAGCL, 1 μg/mL pUC18_stu0855::P32cat. As to the method: as §1
The test system of experiment [13] is S. thermophilus DGCC7854. The description is as above. The conditions noted are these: 1 μM LPYFAGCL, 1 μg/mL pUC18_stu0855::P32cat. As to the method: as §1
In experiment [14] the test system is S. thermophilus DGCC7879. The description is as above. The conditions noted are these: 1 μM LPYFAGCL, 1 μg/mL pUC18_stu0855::P32cat. As to the method: as §1
Experiment [15] relates to S. thermophilus DGCC7891. Described as above. The conditions noted are these: 1 μM LPYFAGCL, 1 μg/mL pUC18_stu0855::P32cat. As to the method:
as §1

In experiment [16] the test system is S. thermophilus DGCC7909. The experiment is described as above. The conditions noted are these: 1 μM LPYFAGCL, 1 μg/mL pUC18_stu0855::P32cat. As to the method:
as §1

Experiment [17] concerns various S. thermophilus strains. As to the kind of experiment: Competence induction over the panel of S. thermophilus strains (summary of Table 9). As to the method: as §1

With “LPYFAGCL (fragment) [synthetic peptide corresponding to a C-terminal fragment of Shp316]”, the “Transformation rate, With peptide addition” value (“Transformation rate” for short) is listed as 1.8 × 10^−3 in [1]; 1.2 × 10^−2 in [2]; 4.2 × 10^−2 in experiment [3]; 3.9 × 10^−2 in experiment [4]; 1 × 10^−2 in experiment [5]; 1.5 × 10^−1 in [6]. Besides, the “Transformation rate” value was 4.1 × 10^−5 in experiment [7]; 4.3 × 10^−2 in [8]; 6.9 × 10^−2 in experiment [9]; 5.8 × 10^−4 in experiment [10]; 2 × 10^−3 in experiment [11]; 4.9 × 10^−4 in [12]. The “Transformation rate” value in experiment [13] is 5.3 × 10^−3; in experiment [14], 8.6 × 10^−3; in experiment [15], 1.4 × 10^−4; in [16], 4.5 × 10^−3. The “Improvement of the efficiency of transformation by the addition of the peptide” value in experiment [17] (1 μM LPYFAGCL versus no peptide) is on record as “up to 6 Log”. Moreover, the “Number of strains competent when CDM is supplemented with the peptide” value in experiment [17] (1 μM LPYFAGCL, 9 competent without peptide) came to 19 strains. In addition, the “Number of strains whose efficiency of transformation was greatly improved by the addition of the peptide” value in experiment [17] (out of the 19 competent strains) is reported as 17 strains.
